For 101 compounds, Kd results are on record in PubChem BioAssay AID1648 (Sanford-Burnham Center for Chemical Genomics, 2009).

Active and inactive are the calls of the source. No rule for the calls is given here.

Sequence of Serine/threonine-protein kinase mTOR (Homo sapiens) (P42345 2015-2114): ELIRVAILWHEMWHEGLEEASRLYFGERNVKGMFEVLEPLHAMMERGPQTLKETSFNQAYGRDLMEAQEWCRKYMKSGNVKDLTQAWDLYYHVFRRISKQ

This test concerns the target Serine/threonine-protein kinase mTOR (Homo sapiens) (UniProt P42345). Briefly: mTOR FRB domain ligand binding – biophysical, NMR (AID 1648). The settings on record: NMR binding to FRB domain, chemical shift.
`Cn1c2c(c(=O)n(C)c1=O)CN(Cc1ccco1)CN2`: the Kd – broadly, the concentration at which binding is half-saturated – was > 4 mM (inactive). In the case of `CC(=O)c1cnc(Nc2nc(C)c3ccccc3n2)nc1C` it was > 4 mM (inactive).

As for `O=C1NC(=Nc2ccc(O)cc2)S/C1=C/c1ccco1`, the Kd was > 4 mM (inactive). Then `Cc1cc(C(=O)N2CCOCC2)c(C)o1`, with > 4 mM (inactive).

Turning to `CCOC(=O)CSc1nnc(C)c(=O)[nH]1`, the Kd is > 4 mM (inactive). On to `O=C1c2ccccc2C(=O)N1OCc1ccccc1`, for which the Kd is > 4 mM (inactive).

In the case of `NC(=O)c1ccc(SCC(=O)O)c([N+](=O)[O-])c1`, the Kd is > 4 mM (inactive). As to `CCOC(=O)C1CCC(=O)c2cccn21` (stereo unspecified), the Kd is > 4 mM (inactive).

For `S=C=NCc1ccccc1`, the Kd is > 4 mM (inactive). Then `Cc1onc(-c2ccccc2)c1C(=O)O`, with > 4 mM (inactive); and `Nc1ccc2nsnc2c1`, with > 4 mM (inactive). On to `COc1c(C(=O)N2CCCC2)ccc2ccccc12`, for which the Kd is > 4 mM (inactive). `O=C(O)c1ccccc1N1CCOCC1`: the Kd was > 4 mM (inactive). In the case of `O=c1[nH]cc(N=Cc2ccc(F)cc2)c(=O)[nH]1` it was > 4 mM (inactive). Then `O=C(NC1=NCCS1)c1ccc2snnc2c1`, with > 4 mM (inactive); and `Cc1c(C(=O)Nc2ccccc2)sc(N)c1C(N)=O`, with > 4 mM (inactive); and `COC(=O)c1ccccc1N(C)S(C)(=O)=O`, with > 4 mM (inactive).

Take `O=C(Nc1cccc(Cl)c1)c1ccncc1`: the Kd was > 4 mM (inactive). As for `Cc1nn2c(nc1=O)SCC2(O)c1ccccc1` (stereo unspecified), the Kd is > 4 mM (inactive). `CN(C)S(=O)(=O)c1ccc(C(=O)NN)cc1`: the Kd is > 4 mM (inactive). As to `O=C(Nc1nncs1)c1c(F)cccc1F`, the Kd was > 4 mM (inactive).

Turning to `CS(=O)(=O)N1CCN(C(=O)c2ccccc2F)CC1`, the Kd is > 4 mM (inactive). `O=C(Nc1ccncc1)c1c(F)cccc1F`: the Kd was > 4 mM (inactive). In the case of `O=C1CSC(=Nc2ccccc2)N1` it was > 4 mM (inactive); in that of `Cc1nc2cc(Cl)ccc2n1CCO`, > 4 mM (inactive). As for `CC(C)(OC(=O)c1ccccc1)[C@@H]1Cc2cc3ccc(=O)oc3cc2O1`, the Kd is > 4 mM (inactive). Regarding `O=c1cc(-c2ccc(O)cc2)oc2cc(O[C@@H]3O[C@H](CO)[C@@H](O)[C@H](O)[C@H]3O[C@@H]3OC[C@](O)(CO)[C@H]3O)cc(O)c12`, the Kd was > 4 mM (inactive). In the case of `O=c1[nH]cc(Nc2ccccc2)c(=O)[nH]1`, the Kd is > 4 mM (inactive).

Turning to `COc1c(C(C)C)oc2cc3oc(=O)ccc3cc12`, the Kd is > 4 mM (inactive). Consider `CNC[C@@H](O)c1ccc(O)c(O)c1`, for which the Kd is > 4 mM (inactive).

Turning to `O=C(/C=C/c1ccccc1)c1ccc(O)cc1`, the Kd was > 4 mM (inactive). For the compound `S=c1[nH]nc(-c2cccnc2)n1C1CCCCC1`, the Kd was > 4 mM (inactive). Turning to `C#CCCCCCCCCCCCc1ccco1`, the Kd was > 4 mM (inactive). As to `O=C(Nc1ccc(O)cc1)N1CCOCC1`, the Kd was > 4 mM (inactive).

Regarding `C[C@@H]1OC(O[C@H]2C(O[C@H]3CC[C@@]4(C)C(CC[C@]5(C)C4CC=C4C6CC(C)(C)CC[C@]6(C(=O)O)CC[C@]45C)[C@]3(C)CO)OC[C@H](O)[C@@H]2O)[C@H](O)[C@H](O)[C@H]1O` (stereo partly specified), the Kd was > 4 mM (inactive). For the compound `O=C(O)c1ncoc1-c1ccccc1`, the Kd was > 4 mM (inactive). For the compound `Cc1nc(-c2ccc(C(=O)N3CCOCC3)cc2)cs1`, the Kd was > 4 mM (inactive). Regarding `O=C(O)c1cccc(CSc2ncccn2)c1`, the Kd is > 4 mM (inactive). Consider `CS(=O)(=O)c1nncn1-c1ccccc1`, for which the Kd was > 4 mM (inactive). `CC(=O)O[C@H]1C[C@@H](OC(C)=O)C(C)(C)C2CC(=O)[C@]3(C)C(CC[C@@]4(C)[C@H](C(=O)O)OC(=O)C5OC543)[C@]21C` (stereo partly specified): the Kd was > 4 mM (inactive). Turning to `O=C(Oc1ccc(-c2nnco2)cc1)N1CCOCC1`, the Kd is > 4 mM (inactive).

As to `O=c1c2c(nc3nc(Cc4ccccc4)[nH]n13)CCC2`, the Kd was > 4 mM (inactive). In the case of `O=C(NCc1ccco1)c1ccc(Br)s1` it was > 4 mM (inactive). Turning to `COc1ccccc1NC(N)=S`, the Kd is > 4 mM (inactive). On to `COc1ccc(-c2coc3cc(O)ccc3c2=O)c(OC)c1`, for which the Kd is > 4 mM (inactive). Consider `Cc1cc(C(=O)Nc2sc(C)c(C)c2C#N)no1`, for which the Kd is > 4 mM (inactive). Regarding `C/C(O)=c1/sc2cc(C)nc(=N)n2c1=O`, the Kd was > 4 mM (inactive).

For the compound `O=C1NC(=S)N/C1=C/c1ccsc1`, the Kd was > 4 mM (inactive). For the compound `COc1ccccc1NC(=O)CCC(=O)O`, the Kd was > 4 mM (inactive). Then `Cc1cccc(C(C)C)c1NC(=O)c1cccnc1`, with > 4 mM (inactive). On to `CNC(=O)C(=O)Nc1ccc(C)c(C)c1`, for which the Kd is > 4 mM (inactive). As to `O=C1CSC(=Nc2ccc(F)cc2)N1`, the Kd was > 4 mM (inactive). As for `CN1C(=O)C2CC=C(Cl)CC2C1=O` (stereo unspecified), the Kd was > 4 mM (inactive). On to `CC(=O)NC12CC3CC(C)(C1)CC(NC(C)=O)(C3)C2`, for which the Kd is > 4 mM (inactive). Take `CC(C)(C)P(=O)(O)c1ccccc1`: the Kd was > 4 mM (inactive). For the compound `Cc1cc(C)nc(/N=C(/N)Nc2cccc(F)c2)n1`, the Kd is > 4 mM (inactive). With `CC(=O)NCC1OCCc2ccccc21` (stereo unspecified), the Kd is > 4 mM (inactive). Then `COC(=O)Nc1nnc(-c2ccncc2)s1`, with > 4 mM (inactive); and `Nc1nc2ccc(C(=O)O)cc2s1`, with > 4 mM (inactive).

Regarding `COc1cc(C)nc(N(CCO)CCO)n1`, the Kd is > 4 mM (inactive). Take `O=C1CCNc2cc3ccccc3cc21`: the Kd was > 4 mM (inactive).

Take `CC(C)=CCCC1(C)C=Cc2c(O)c3c(c(CC=C(C)C)c2O1)OC12C(=CC4CC1C(C)(C)OC2(C/C=C(/C)C(=O)O)C4O)C3=O` (stereo unspecified): the Kd is > 4 mM (inactive). Consider `O=C(NS(=O)(=O)c1ccccc1)c1ccccc1F`, for which the Kd was > 4 mM (inactive). Consider `Cc1nc(-c2ccccc2)sc1CN`, for which the Kd was > 4 mM (inactive). In the case of `O=c1[nH]c(=S)[nH]c2c1CCC2`, the Kd was > 4 mM (inactive). On to `CC(=O)c1ccc(Cc2cnc(N)s2)cc1`, for which the Kd was > 4 mM (inactive). `CC1(C)CC2(CCO1)NCCN1C(=O)CSC12` (stereo unspecified): the Kd was > 4 mM (inactive). On to `OC[C@@H](O)[C@@H](O[C@@H]1O[C@H](CO)[C@@H](O)[C@H](O)[C@H]1O)[C@H](O)[C@@H](O)CO`, for which the Kd was > 4 mM (inactive). For `OCc1snnc1-c1ccccc1`, the Kd was > 4 mM (inactive). Consider `O=C(NCc1ccco1)c1ccc(=O)[nH]c1`, for which the Kd was > 4 mM (inactive). Take `Cc1cc(=O)[nH]c(N2CCN(Cc3ccccc3)CC2)n1`: the Kd was > 4 mM (inactive). With `CC(=O)O[C@@H]1CC2C(C)(C)C=CC(=O)[C@]2(C)C2CC[C@@]3(C)[C@H](c4ccoc4)OC(=O)C4OC43[C@@]21C` (stereo partly specified), the Kd is > 4 mM (inactive). For the compound `Cc1ccc(N2C(=O)CC(Sc3ncn[nH]3)C2=O)cc1` (stereo unspecified), the Kd was > 4 mM (inactive). In the case of `COC(=O)C1=C(C)N(Cc2ccco2)C(=O)C1` it was > 4 mM (inactive); in that of `COC(=O)CC1=Nc2ccccc2NC(=O)C1`, > 4 mM (inactive); in that of `NC(=O)CNC(=O)c1ccccc1`, > 4 mM (inactive). Then `COc1cc([C@@H]2c3cc4c(cc3[C@H](OC(C)=O)[C@H]3COC(=O)[C@H]23)OCO4)cc(OC)c1OC`, with > 4 mM (inactive). On to `COc1cc2c(cc1OC)[C@@H]1C(=O)c3ccc(OC)c(CC=C(C)C)c3O[C@@H]1CO2`, for which the Kd was > 4 mM (inactive). With `CCOc1ccccc1C(=O)NC1=NCCS1`, the Kd was > 4 mM (inactive).

With `O=C(Nc1cnc2ccccn2c1=O)c1ccc(F)cc1`, the Kd was > 4 mM (inactive). In the case of `CNC(C)[C@H](O)c1ccccc1` (stereo partly specified) it was > 4 mM (inactive); in that of `c1coc(CNc2ncnc3nc[nH]c23)c1`, > 4 mM (inactive); in that of `COc1ccc(-c2c(C)n([O-])c(C)c(C)[n+]2=O)cc1`, > 4 mM (inactive).

For `O=C1C2CCCCC2C(=O)N1Cc1cccnc1` (stereo unspecified), the Kd was > 4 mM (inactive).

On to `COC(=O)CSc1nc(N)cc(=O)[nH]1`, for which the Kd is > 4 mM (inactive). In the case of `O=C(CC1SC(=O)NC1=O)Nc1ccccc1` (stereo unspecified), the Kd was > 4 mM (inactive).

Consider `COCc1cc(Cl)nc(-c2csc(C)n2)n1`, for which the Kd is > 4 mM (inactive).

Turning to `COc1cc2occc2c2oc(=O)ccc12`, the Kd was > 4 mM (inactive). Take `COc1cc(C(C)=O)ccc1OCC(O)Cn1ccnc1` (stereo unspecified): the Kd is > 4 mM (inactive). Consider `CC(=O)O[C@@H]1CC2C(C)(C)[C@@H](O)CC[C@]2(C)C2CC[C@@]3(C)[C@H](c4ccoc4)OC(=O)[C@H]4O[C@]43[C@@]21C` (stereo partly specified), for which the Kd was > 4 mM (inactive). `NCc1ccccc1N1CCCCC1`: the Kd was > 4 mM (inactive). Then `O=C1C2C3C=CC(C3)C2C(=O)N1c1cccnc1` (stereo unspecified), with > 4 mM (inactive); and `O=C(O)c1ccc2occc2c1`, with > 4 mM (inactive); and `O=C(O)c1ccc(-c2cnco2)cc1`, with > 4 mM (inactive). In the case of `N/C(=N/S(=O)(=O)c1cccs1)c1ccccc1` it was > 4 mM (inactive); in that of `OCc1cccc2c1OCCO2`, > 4 mM (inactive); in that of `Cc1noc(C)c1C(=O)N1CCc2ccccc21`, > 4 mM (inactive). Turning to `[O-][n+]1cc(O)c(CN2CCOCC2)c2ccccc21`, the Kd is > 4 mM (inactive). Then `CC1SC(=NC(=O)c2ccncc2)NC1=O` (stereo unspecified), with > 4 mM (inactive). For the compound `Cc1c(C(=O)NC2=NCCS2)oc2ccccc12`, the Kd was > 4 mM (inactive). Regarding `CC(=O)c1cc2c(cc1O)OC(C)(C)C=C2`, the Kd was > 4 mM (inactive).
